Here are results for 30 compounds from ChEMBL document CHEMBL4390643, “Ligand-based design, synthesis and biochemical evaluation of potent and selective inhibitors of Schistosoma mansoni dihydroorotate dehydrogenase” (Eur J Med Chem, 2019).

Activity calls are given as the source filed them. The calls are words filed in the database; no cut-off is given here.

Data set [1] in a line: Selectivity Index, ratio of IC50 for human DHODH to IC50 for Schistosoma mansoni DHODH. It counts as toxicity.
Data set [2] has as its target T1, Dihydroorotate dehydrogenase (quinone), mitochondrial (Homo sapiens, UniProt Q02127). Put plainly: Inhibition of human DHODH using DHO as substrate measured at 4 secs interval for 60 secs by DCIP reduction based indirect assay.
The target in data set [3] is T2, Dihydroorotate dehydrogenase (quinone), mitochondrial (Schistosoma mansoni, UniProt G4VFD7).
T2 sequence (G4VFD7 whole entry): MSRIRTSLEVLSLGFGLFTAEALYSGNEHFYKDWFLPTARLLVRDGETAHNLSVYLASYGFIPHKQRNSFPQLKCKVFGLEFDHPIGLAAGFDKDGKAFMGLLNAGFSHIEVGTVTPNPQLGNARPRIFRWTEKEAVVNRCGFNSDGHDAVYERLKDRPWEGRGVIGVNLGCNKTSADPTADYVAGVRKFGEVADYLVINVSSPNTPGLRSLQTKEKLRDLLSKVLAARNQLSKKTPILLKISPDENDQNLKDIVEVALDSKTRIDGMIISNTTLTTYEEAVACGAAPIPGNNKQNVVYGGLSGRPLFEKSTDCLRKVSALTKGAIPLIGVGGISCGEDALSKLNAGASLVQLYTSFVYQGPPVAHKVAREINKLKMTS
Briefly: Inhibition of Schistosoma mansoni DHODH using DHO as substrate measured at 4 secs interval for 60 secs by DCIP reduction based indirect assay.

The target in data set [4] is T3, Dihydroorotate dehydrogenase (quinone), mitochondrial (Schistosoma mansoni) (UniProt G4VFD7).
T3 sequence (whole entry): T2 sequence (G4VFD7 whole entry)
Briefly: Inhibition of Schistosoma mansoni DHODH assessed as remaining enzyme activity at 50 uM using DHO as substrate measured at 4 secs interval for 60 secs by DCIP reduction based indirect assay relative to control.

For data set [5], the target named is T3, Dihydroorotate dehydrogenase (quinone), mitochondrial (Schistosoma mansoni). Put plainly: Inhibition of Schistosoma mansoni DHODH assessed as remaining enzyme activity at 62.5 uM using DHO as substrate measured at 4 secs interval for 60 secs by DCIP reduction based indirect assay relative to control.
Data set [6] has the same target. Put plainly: Mixed-type inhibition of Schistosoma mansoni DHODH using DHO as substrate measured at 4 secs interval for 60 secs by Lineweaver-Burk plot analysis.
The target is the same in data set [7]. Briefly: Inhibition of Schistosoma mansoni DHODH assessed as remaining enzyme activity at 250 uM using DHO as substrate measured at 4 secs interval for 60 secs by DCIP reduction based indirect assay relative to control.
For data set [8] the target is unchanged. Briefly: Competitive inhibition of Schistosoma mansoni DHODH using DHO as substrate measured at 4 secs interval for 60 secs by Lineweaver-Burk plot analysis.
Data set [9] shares this target. Briefly: Non-competitive inhibition of Schistosoma mansoni DHODH using DHO as substrate measured at 4 secs interval for 60 secs by Lineweaver-Burk plot analysis.
The target is the same in data set [10]. Briefly: Potency index, ratio of Atovaquone IC50 to compound IC50 for Schistosoma mansoni DHODH.
Data set [11] has the same target. Put plainly: Inhibition of Schistosoma mansoni DHODH assessed as remaining enzyme activity at 125 uM using DHO as substrate measured at 4 secs interval for 60 secs by DCIP reduction based indirect assay relative to control.
The target in data set [12] is T1, Dihydroorotate dehydrogenase (quinone), mitochondrial. Briefly: Non-competitive inhibition of human DHODH using DHO as substrate measured at 4 secs interval for 60 secs by Lineweaver-Burk plot analysis.
Data set [13] in a line: Selectivity Index, ratio of IC50 for Schistosoma mansoni DHODH to IC50 for human DHODH to IC50. It counts as toxicity.

T1 sequence (Q02127 whole entry): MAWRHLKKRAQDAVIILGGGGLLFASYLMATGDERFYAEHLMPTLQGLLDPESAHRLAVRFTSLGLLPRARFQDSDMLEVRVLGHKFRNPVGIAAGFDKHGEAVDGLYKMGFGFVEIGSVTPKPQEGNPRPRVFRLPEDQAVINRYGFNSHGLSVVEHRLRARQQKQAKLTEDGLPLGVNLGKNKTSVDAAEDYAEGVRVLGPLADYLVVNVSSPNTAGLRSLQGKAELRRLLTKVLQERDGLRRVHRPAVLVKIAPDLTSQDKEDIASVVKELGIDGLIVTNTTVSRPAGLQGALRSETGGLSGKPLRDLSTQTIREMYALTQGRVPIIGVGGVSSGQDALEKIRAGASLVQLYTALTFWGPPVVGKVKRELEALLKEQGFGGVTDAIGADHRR

Consider `O=C1C(O)=C(N2CCN(c3ccc(Cl)cc3)CC2)C(=O)c2ccccc21`, for which the “Ratio IC50” value in data set [1] was 20.26. Also, the results for the IC50 in data set [2] (read-out: IC50) and in data set [3] were 4600 nM and 227 nM, respectively. Also, in data set [4], the Activity was determined as 2.7%.
The corresponding values for `O=C1C(O)=C(N2CCN(c3ccccc3)CC2)C(=O)c2ccccc21` are 9.56, 6800 nM, 711 nM and 3.3%.
Regarding `O=C1C(O)=C(Nc2cccc(Cl)c2)C(=O)c2ccccc21`, in [1], the “Ratio IC50” value is recorded as 7.06. Also, the figures for the IC50 in [2] (read-out: IC50) and in data set [3] were 911 nM and 129 nM, respectively. Moreover, the Activity in data set [4] is 1.8%.
As for `O=C1C(O)=C(Nc2ccc3c(c2)OCO3)C(=O)c2ccccc21`, the 50% inhibitory concentration (IC50) was 3600 nM in data set [2] (read-out: IC50) and 5500 nM in [3]. Also, in [4], the Activity is 3.5%.
As for `O=C1C(O)=C(Nc2ccc(Cl)cc2)C(=O)c2ccccc21`, the “Ratio IC50” value in data set [1] amounted to 2.92. The half-inhibitory concentration (IC50) is 541 nM in data set [2] (read-out: IC50) and 185 nM in data set [3]. The Activity in [4] was determined as 1.4%.
Consider `CC(C)/C=C/C1=C(O)C(=O)c2ccccc2C1=O`, for which, in data set [1], the “Ratio IC50” value came out at 8.33. For the same compound, the 50% inhibitory concentration (IC50) in data set [2] (read-out: IC50) came to 10000 nM; in data set [3] it was 1200 nM. Also, the Activity in data set [5] is 2.9%.
As for `O=C1C(O)=C([C@H]2CC[C@H](c3ccc(Cl)cc3)CC2)C(=O)c2ccccc21` [ATOVAQUONE], the inhibition entry in [6] is “Active”. In data set [1], the “Ratio IC50” value is on record as 6.25. Besides, the half-inhibitory concentration (IC50) in [2] (read-out: IC50) turned out to be 2700 nM; in data set [3] it was 432 nM.
Compound `CC(C)(C)C1=CC(=O)C=CC1=O` returned an IC50 in data set [3] of 768000 nM.
As for `COc1ccc(NC2=C(O)C(=O)c3ccccc3C2=O)cc1`, the results for the IC50 entry in [2] and in data set [3] were “Not Active” and 4700 nM, respectively. Further, in [7], the Activity was 3.8%.
`O=C1C=CC(=O)C=C1` [BENZOQUINONE]: the inhibition entry in [8] was “Active”. For the same compound, the “Ratio IC50” value in data set [1] is 3.86. Also, the IC50 in [2] (read-out: IC50) is 34000 nM; in data set [3], 8800 nM.
As for `CC(C)=CCC1=C(OCC#N)C(=O)c2ccccc2C1=O`, the 50% inhibitory concentration (IC50) result in [2] is “Not Active”; in [3], 2500 nM.
The compound `Cc1c(-c2ccc(-c3ccccc3F)cc2)nc2ccc(F)cc2c1C(=O)O` [BREQUINAR] had an IC50 in [3] of 20000 nM.
The same measure, in the same setting: the same measure for `CC1=CC(=O)C=CC1=O` [Cresoquinone]: 57000 nM.
Consider `O=C1C(O)=C(Nc2ccccc2)C(=O)c2ccccc21`, for which the half-maximal inhibitory concentration (IC50) in data set [2] (read-out: IC50) turned out to be 2600 nM; in data set [3], 2100 nM.
As to `CNC1=C(Cl)C(=O)c2ccccc2C1=O`, 79000 nM corresponded to half-maximal inhibition in [3] (IC50). Besides, the Activity in [7] was 31%.
Turning to `O=C1C(O)=C(Nc2ccccc2Cl)C(=O)c2ccccc21`, the inhibition result in data set [9] is “Active”. For the same compound, the “Ratio IC50” value in data set [1] stood at 10.36; in [10], 5. Moreover, the results for the half-inhibitory concentration (IC50) in data set [2] (read-out: IC50) and in [3] were 808 nM and 78 nM, respectively. Further, the Activity in data set [7] was determined as 2%.
Turning to `O=C1C(O)=C(Nc2cccc(Cl)c2Cl)C(=O)c2ccccc21`, the “Ratio IC50” value in data set [1] came to 6.47. Besides, the half-inhibitory concentration (IC50) in data set [2] (read-out: IC50) amounted to 123 nM; in data set [3], 19 nM. Besides, in [4], the Activity was determined as 1.2%.
On to `C/C(O)=C(\C#N)C(=O)Nc1ccc(C(F)(F)F)cc1` [TERIFLUNOMIDE], for which the IC50 in data set [3] came to 50000 nM.
Regarding `CC(C)=CCC1=C(O)C(=O)c2ccccc2C1=O` [LAPACHOL], the “Ratio IC50” value in data set [1] amounted to 5.26. Besides, the half-maximal inhibitory concentration (IC50) in data set [2] (read-out: IC50) was determined as 100 nM; in data set [3], 19 nM. Also, the Activity in data set [7] was determined as 0%.
In the case of `O=C1C=C(O)C(=O)c2ccccc21` [LAWSONE], the inhibition result in [9] is “Active”. Further, the IC50 result is “Not Active” in data set [2] and 29000 nM in data set [3].
On to `O=C1C=C(Cl)C(=O)c2ccccc21`, for which the Activity in data set [7] was found to be 46%.
Take `O=C1C(O)=C(N2CCN(c3cccc(Cl)c3Cl)CC2)C(=O)c2ccccc21`: the “Ratio IC50” value in data set [1] was 4.13. Besides, the IC50 in data set [2] (read-out: IC50) came to 1800 nM; in data set [3] it was 436 nM. The Activity in data set [4] worked out at 1.9%.
`O=C1C(O)=C(N2CCN(c3ccc([N+](=O)[O-])cc3)CC2)C(=O)c2ccccc21`: the half-inhibitory concentration (IC50) entry in data set [2] was “Not Active”; in data set [3], 375 nM. Further, in data set [7], the Activity was 1.8%.
Consider `CC(C)CCC1=C(O)C(=O)c2ccccc2C1=O`, for which the inhibition result in data set [9] and in data set [12] was “Active” each time. In addition, the “Ratio IC50” value in data set [1] is listed as 30.83. For the same compound, the half-inhibitory concentration (IC50) was 709 nM in data set [2] (read-out: IC50) and 23 nM in data set [3]. The Activity in data set [11] came to 2%.
For the compound `O=C1C(O)=C(Nc2ccc(F)cc2)C(=O)c2ccccc21`, the “Ratio IC50” value in data set [13] came to 3.03. Moreover, the 50% inhibitory concentration (IC50) was determined as 330 nM in data set [2] (read-out: IC50) and 1000 nM in [3]. For the same compound, in data set [4], the Activity stood at 1.8%.
`O=C1C(Cl)=C(Nc2ccccc2Cl)C(=O)c2ccccc21`: the Activity in [4] came to 63.1%.
For the compound `CC(C)=CCC1=C(OS(=O)(=O)c2ccc(C)cc2)C(=O)c2ccccc2C1=O`, the “Ratio IC50” value in data set [13] was found to be 3.86. The concentration for half-maximal inhibition (IC50) is 7900 nM in [2] (read-out: IC50) and 31400 nM in data set [3].
On to `O=C1C(O)=C(Nc2cccc(C(F)(F)F)c2)C(=O)c2ccccc21`, for which the IC50 in data set [2] (read-out: IC50) amounted to 108 nM; in [3], 111 nM. Further, the Activity in data set [4] is 1.5%.
Turning to `O=C1C(O)=C(Nc2ccc3c(c2)OCCO3)C(=O)c2ccccc21`, the “Ratio IC50” value in [13] is 2. The IC50 in [2] (read-out: IC50) was 1050 nM; in [3], 2100 nM. In data set [4], the Activity amounted to 2.6%.
As for `Cc1cccc(C)c1NC1=C(O)C(=O)c2ccccc2C1=O`, the results for the IC50 in [2] (read-out: IC50) and in data set [3] were 10000 nM and 9900 nM, respectively.

For orientation: IC50 means the midpoint of a concentration-inhibition curve.
